In patent publication US6737383B1, “Herbicidal oxadiazolidines” (priority 1999, dated 2004):

Legend:
cocklebur = experiment: Test B pre/postemergence cocklebur; assay type: in vivo, Xanthium strumarium
Method in brief: (§1)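 Response is a visual 0-to-10 score relative to untreated plants, where 0 means no effect and 10 means complete control, taken twelve to sixteen days after application. Treatments went onto soil at planting and onto foliage of 1- to 4-leaf plants, using a surfactant-containing non-phytotoxic solvent.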

sugar beet = experiment: Test B pre/postemergence sugar beet; assay type: in vivo, Beta vulgaris
Method in brief: as §1

smallflower flatsedge = experiment: Test B flood test smallflower flatsedge; assay type: in vivo, Cyperus difformis
Method in brief: (§2)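 Flood test on plants grown to the 2-leaf stage; treated plants kept in greenhouse twelve to sixteen days, then visually rated against controls on a 0 (no effect) to 10 (complete control) scale.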

bamyardgrass = experiment: Test B flood test barnyardgrass; assay type: in vivo, Echinochloa crus-galli
Method in brief: as §2

winter wheat [1] = experiment: Test E winter wheat; assay type: in vivo, Triticum aestivum; settings: Postemergence; for Wheat (winter) plant response rating: Rate 250 g/ha
Method in brief: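 Greenhouse test: for postemergence, foliar application at 1- to 4-leaf stage; compound in non-phytotoxic solvent with surfactant. Rating is visual, relative to untreated controls, about 21 to 28 days after treatment.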

blackgrass = experiment: Test E blackgrass; assay type: in vivo, Alopecurus myosuroides; settings: Preemergence; for Blackgrass plant response rating (0 to 100 scale): Rate 250 g/ha
green foxtail = experiment: Test E green foxtail; assay type: in vivo, Setaria viridis; settings: Preemergence; for Green foxtail plant response rating (0 to 100 scale): Rate 250 g/ha
Italian ryegrass = experiment: Test E Italian ryegrass; assay type: in vivo, Lolium multiflorum; settings: Preemergence; for I. Ryegrass plant response rating (0 to 100 scale): Rate 250 g/ha
winter wheat [2] = experiment: Test E winter wheat; assay type: in vivo, Triticum aestivum; settings: Preemergence; for Wheat (winter) plant response rating (0 to 100 scale): Rate 250 g/ha
wild oat = experiment: Test E wild oat; assay type: in vivo, Avena fatua; settings: Preemergence; for Wild oat plant response rating (0 to 100 scale): Rate 250 g/ha
winter barley = experiment: Test E winter barley; assay type: in vivo, Hordeum vulgare; settings: Preemergence; for Barley (winter) plant response rating (0 to 100 scale): Rate 250 g/ha
[3] = Preemergence, Rate 62 g/ha, scale of 0 to 10 where 0 is no effect and 10 is complete control
[4] = Preemergence, Rate 250 g/ha, scale of 0 to 10 where 0 is no effect and 10 is complete control
[5] = Rate 62 g/ha, Postemergence, scale of 0 to 10 where 0 is no effect and 10 is complete control
[6] = Rate 125 g/ha, Postemergence, scale 0 to 10
[7] = Rate 125 g/ha, Preemergence, scale of 0 to 10 where 0 is no effect and 10 is complete control
[8] = Rate 500 g/ha, Postemergence, scale 0 to 10, 0 no effect, 10 complete control
[9] = Preemergence, Rate 500 g/ha, scale of 0 to 10 where 0 is no effect and 10 is complete control
[10] = Rate 62 g/ha, headed Pre-emergence (flood test species), scale 0 to 10 (0 no effect, 10 complete control)
[11] = Rate 125 g/ha, Pre-emergence, flood test species, scale 0 to 10 where 0 is no effect and 10 is complete control
[12] = Rate 250 g/ha, Pre-emergence, flood-test species, scale 0 to 10, 0 is no effect, 10 is complete control
[13] = Rate 500 g/ha, Pre-emergence, flood test species, scale 0 to 10 (0 no effect, 10 complete control)
[14] = Rate 1000 g/ha, 0 to 100 scale where 0 is no effect and 100 is complete control
[15] = 0 to 100 scale where 0 is no effect and 100 is complete control
[16] = Rate 1000 g/ha, 0 to 100 scale, 0 no effect, 100 complete control
[17] = Rate 500 g/ha, 0 to 100 scale where 0 is no effect and 100 is complete control

CC(C)N(C(=O)n1oc(=O)n([C@H](C)c2ccccc2)c1=O)c1ccc(F)cc1F [Compound 238] was tested, and the “Cocklebur plant response rating” value (cocklebur; [3]) was 0, the “Cocklebur plant response rating” value (cocklebur; [4]) was 0 and the “Cocklebur plant response rating” value (cocklebur; [5]) was 0. The “Cocklebur plant response rating” value (cocklebur; [6]) was 0, the “Cocklebur plant response rating” value (cocklebur; [7]) was 0 and the “Plant response rating (0 to 10; 0 is no effect, 10 is complete control), Cocklebur” value (cocklebur; Rate 250 g/ha, Postemergence) was 0. For the same compound, the “Cocklebur plant response rating” value (cocklebur; [8]) was 0, the “Sugarbeets plant response rating” value (sugar beet; [3]) was 0 and the “Sugarbeets plant response rating” value (sugar beet; [4]) was 3. For the same compound, the “Plant response rating, Sugarbeets” value (sugar beet; [9]) was 6, the “Sugarbeets plant response rating” value (sugar beet; [5]) was 0 and the “Sugarbeets plant response rating” value (sugar beet; [7]) was 0. For the same compound, the “Sugarbeets plant response rating” value (sugar beet; [8]) was 0, the “S. Flatsedge plant response rating” value (smallflower flatsedge; [10]) was 0 and the “S. Flatsedge plant response rating” value (smallflower flatsedge; [11]) was 0. For the same compound, the “S. Flatsedge plant response rating” value (smallflower flatsedge; [12]) was 0, the “S. Flatsedge plant response rating” value (smallflower flatsedge; [13]) was 0 and the “Barnyardgrass plant response rating” value (bamyardgrass; [10]) was 0. The “Barnyardgrass plant response rating” value (bamyardgrass; [11]) was 0, the “Barnyardgrass plant response rating” value (bamyardgrass; [12]) was 0 and the “Barnyardgrass plant response rating” value (bamyardgrass; [13]) was 0. For the same compound, the “Plant response rating, Wheat (winter)” value (winter wheat [1]; [14]) was 40, the “Wheat (winter) plant response rating” value (winter wheat [1]; [15]) was 60 and the “Blackgrass plant response rating (0 to 100 scale)” value (blackgrass) was 50. For the same compound, the “Plant response rating, Blackgrass” value (blackgrass; [16]) was 75, the “Green foxtail plant response rating (0 to 100 scale)” value (green foxtail) was 70 and the “Plant response rating, Green foxtail” value (green foxtail; [16]) was 100. The “I. Ryegrass plant response rating (0 to 100 scale)” value (Italian ryegrass) was 50, the “Plant response rating, I. Ryegrass” value (Italian ryegrass; [16]) was 85 and the “Wheat (winter) plant response rating (0 to 100 scale)” value (winter wheat [2]) was 40. For the same compound, the “Plant response rating, Wheat (winter)” value (winter wheat [2]; [16]) was 50, the “Wild oat plant response rating (0 to 100 scale)” value (wild oat) was 50 and the “Plant response rating, Wild oat” value (wild oat; [16]) was 50. For the same compound, the “Barley (winter) plant response rating (0 to 100 scale)” value (winter barley) was 40 and the “Plant response rating, Barley (winter)” value (winter barley; [16]) was 30.

For Cc1ccccc1N(C(=O)n1oc(=O)n(-c2ccccc2C)c1=O)C(C)C [Compound 236], the “Cocklebur plant response rating” value (cocklebur; [3]) was 0, the “Cocklebur plant response rating” value (cocklebur; [4]) was 0 and the “Plant response rating, Cocklebur” value (cocklebur; [9]) was 0. The “Cocklebur plant response rating” value (cocklebur; [5]) was 0, the “Cocklebur plant response rating” value (cocklebur; [6]) was 0 and the “Cocklebur plant response rating” value (cocklebur; [7]) was 0. For the same compound, the “Plant response rating (0 to 10; 0 is no effect, 10 is complete control), Cocklebur” value (cocklebur; Rate 250 g/ha, Postemergence) was 0, the “Cocklebur plant response rating” value (cocklebur; [8]) was 0 and the “Sugarbeets plant response rating” value (sugar beet; [3]) was 0. For the same compound, the “Sugarbeets plant response rating” value (sugar beet; [4]) was 0, the “Plant response rating, Sugarbeets” value (sugar beet; [9]) was 0 and the “Sugarbeets plant response rating” value (sugar beet; [5]) was 0. The “Sugarbeets plant response rating” value (sugar beet; [6]) was 0, the “Sugarbeets plant response rating” value (sugar beet; [7]) was 0 and the “Plant response rating (0 to 10; 0 is no effect, 10 is complete control), Sugarbeets” value (sugar beet; Rate 250 g/ha, Postemergence) was 0. The “Sugarbeets plant response rating” value (sugar beet; [8]) was 0, the “S. Flatsedge plant response rating” value (smallflower flatsedge; [10]) was 0 and the “S. Flatsedge plant response rating” value (smallflower flatsedge; [11]) was 0. For the same compound, the “S. Flatsedge plant response rating” value (smallflower flatsedge; [12]) was 0, the “S. Flatsedge plant response rating” value (smallflower flatsedge; [13]) was 0 and the “Barnyardgrass plant response rating” value (bamyardgrass; [10]) was 0. The “Barnyardgrass plant response rating” value (bamyardgrass; [11]) was 0, the “Barnyardgrass plant response rating” value (bamyardgrass; [12]) was 0 and the “Barnyardgrass plant response rating” value (bamyardgrass; [13]) was 0. The “Plant response rating, Wheat (winter)” value (winter wheat [1]; [14]) was 10, the “Wheat (winter) plant response rating” value (winter wheat [1]; [15]) was 0 and the “Plant response rating, Wheat (winter)” value (winter wheat [1]; Rate 500 g/ha, 0 to 100 scale, 0 is no effect, 100 is complete control) was 0. The “Blackgrass plant response rating (0 to 100 scale)” value (blackgrass) was 60, the “Plant response rating, Blackgrass” value (blackgrass; [17]) was 60 and the “Plant response rating, Blackgrass” value (blackgrass; [16]) was 70. For the same compound, the “Green foxtail plant response rating (0 to 100 scale)” value (green foxtail) was 85, the “Plant response rating, Green foxtail” value (green foxtail; [17]) was 100 and the “Plant response rating, Green foxtail” value (green foxtail; [16]) was 100. For the same compound, the “I. Ryegrass plant response rating (0 to 100 scale)” value (Italian ryegrass) was 20, the “Plant response rating, I. Ryegrass” value (Italian ryegrass; [17]) was 40 and the “Plant response rating, I. Ryegrass” value (Italian ryegrass; [16]) was 55. For the same compound, the “Wheat (winter) plant response rating (0 to 100 scale)” value (winter wheat [2]) was 0, the “Plant response rating, Wheat (winter)” value (winter wheat [2]; [17]) was 10 and the “Plant response rating, Wheat (winter)” value (winter wheat [2]; [16]) was 20. For the same compound, the “Wild oat plant response rating (0 to 100 scale)” value (wild oat) was 20, the “Plant response rating, Wild oat” value (wild oat; [17]) was 30 and the “Plant response rating, Wild oat” value (wild oat; [16]) was 50. For the same compound, the “Barley (winter) plant response rating (0 to 100 scale)” value (winter barley) was 20, the “Plant response rating, Barley (winter)” value (winter barley; [17]) was 40 and the “Plant response rating, Barley (winter)” value (winter barley; [16]) was 50.
